Experimental data: PMC9235293 (European Journal of Medicinal Chemistry, 2022)

## CC(C)[C@H](NC(=O)OCc1ccccc1)C(=O)N[C@@H](Cc1cccs1)C(=O)N[C@H](C=O)C[C@@H]1CCNC1=O [MPI15]
  Solubility in DMSO: insoluble
